Experiment [1] deals with T1, Cannabinoid receptor 1 (Homo sapiens, UniProt P21554). Put plainly: Displacement of [3H]CP55940 from human CB1R in HEK293 cell membranes at 10 uM after 60 mins liquid scintillation analysis relative to control. (In general: Displacement assays read how much labelled ligand stays bound in the presence of the test substance.)
In a further experiment the target is D(2) dopamine receptor (Homo sapiens, UniProt P14416). Put plainly: Binding affinity to human D2R.
For experiment [2], the target named is T1, Cannabinoid receptor 1. As to the kind of experiment: Displacement of [3H]CP55940 from human CB1R in HEK293 cell membranes after 60 mins liquid scintillation analysis.

Chain of D(2) dopamine receptor (P14416 whole entry): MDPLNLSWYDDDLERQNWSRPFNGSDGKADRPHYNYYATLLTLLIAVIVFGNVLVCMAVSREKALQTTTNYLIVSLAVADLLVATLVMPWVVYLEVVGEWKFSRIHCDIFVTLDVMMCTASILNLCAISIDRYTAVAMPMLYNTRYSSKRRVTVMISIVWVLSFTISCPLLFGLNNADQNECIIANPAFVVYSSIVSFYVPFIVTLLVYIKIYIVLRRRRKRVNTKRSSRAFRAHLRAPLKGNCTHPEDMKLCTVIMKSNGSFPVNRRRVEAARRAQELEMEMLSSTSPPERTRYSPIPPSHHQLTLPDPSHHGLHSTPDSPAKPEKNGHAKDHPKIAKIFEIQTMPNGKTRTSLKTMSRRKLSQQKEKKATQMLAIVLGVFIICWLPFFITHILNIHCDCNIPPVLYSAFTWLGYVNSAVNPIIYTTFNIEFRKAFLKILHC
T1 sequence (P21554 whole entry): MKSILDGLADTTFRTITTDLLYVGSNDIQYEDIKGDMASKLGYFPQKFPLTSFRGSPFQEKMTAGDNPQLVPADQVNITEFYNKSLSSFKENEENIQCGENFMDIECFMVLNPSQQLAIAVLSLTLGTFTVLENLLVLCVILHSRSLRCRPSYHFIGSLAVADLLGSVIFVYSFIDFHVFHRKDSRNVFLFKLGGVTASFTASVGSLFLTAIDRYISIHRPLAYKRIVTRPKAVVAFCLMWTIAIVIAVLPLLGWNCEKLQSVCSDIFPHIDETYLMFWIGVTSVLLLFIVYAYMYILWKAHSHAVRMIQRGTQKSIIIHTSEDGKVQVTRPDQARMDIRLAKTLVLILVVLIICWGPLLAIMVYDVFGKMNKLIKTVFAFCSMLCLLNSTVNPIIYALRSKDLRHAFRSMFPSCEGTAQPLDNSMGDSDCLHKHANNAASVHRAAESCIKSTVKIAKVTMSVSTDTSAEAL

Regarding `CC(=O)NCCCCCC(=O)NCc1ccc(C(=O)NCCCCCC(=O)NCCCCCC(=O)NCc2ccc(C(=O)NCCCCCC(=O)NCCCCCCNC(=O)c3nn(-c4ccc(Cl)cc4Cl)c(-c4ccc(Cl)cc4)c3C)cc2)cc1`, on Cannabinoid receptor 1 [1], the inhibition (as a rule, the percentage by which the read-out fell short of the control) amounted to 0%.

Consider `CCCN(CCc1ccc(NC(=O)CCC(=O)NCCCC[C@H](NC(C)=O)C(=O)NCCCC[C@H](NC(C)=O)C(=O)NCCCCCCNC(=O)c2nn(-c3ccc(Cl)cc3Cl)c(-c3ccc(Cl)cc3)c2C)cc1)C1CCc2c(O)cccc2C1` (some centres undefined), for which the Ki – broadly, the dissociation constant of the complex between target and ligand, obtained from inhibition or displacement – on D(2) dopamine receptor was 0.84 nM. This molecule also yielded an inhibition on Cannabinoid receptor 1 [1] of 62%.

Turning to `CC(=O)N[C@@H](CCCCNC(=O)COCCOCCNC(=O)c1nn(-c2ccc(Cl)cc2Cl)c(-c2ccc(Cl)cc2)c1C)C(=O)NCCCC[C@H](NC(C)=O)C(=O)NCCCCCCNC(=O)c1nn(-c2ccc(Cl)cc2Cl)c(-c2ccc(Cl)cc2)c1C`, at Cannabinoid receptor 1 [1], the inhibition was determined as 23%.

Consider `COC(=O)CCCCCNC(=O)c1ccc(-c2ccc(-c3c(C)c(C(=O)NN4CCCCC4)nn3-c3ccc(Cl)cc3Cl)cc2)cc1`, for which the inhibition at Cannabinoid receptor 1 [1] was found to be 49%.

On Cannabinoid receptor 1 [1], `Cc1c(C(=O)NN2CCCCC2)nn(-c2ccc(Cl)cc2Cl)c1-c1ccc(C#CCCOC(=O)CCCCCNC(=O)OC(C)(C)C)cc1` displayed an inhibition of 79%. Further, at Cannabinoid receptor 1 [2], the Ki was found to be 106 nM.

Consider `Cc1c(C(=O)NCCCCCCNC(=O)CCCCCNC(=O)c2ccc(CNC(=O)CCCCCNC(=O)CCCCCNC(=O)c3ccc(CNC(=O)CCCCCNC(=O)c4nn(-c5ccc(Cl)cc5Cl)c(-c5ccc(Cl)cc5)c4C)cc3)cc2)nn(-c2ccc(Cl)cc2Cl)c1-c1ccc(Cl)cc1`, for which the inhibition at Cannabinoid receptor 1 [1] was 0%.

`CC(=O)N[C@@H](CCCCNC(=O)COCCOCCNC(=O)COCCOCCNC(=O)c1nn(-c2ccc(Cl)cc2Cl)c(-c2ccc(Cl)cc2)c1C)C(=O)NCCCC[C@H](NC(C)=O)C(=O)NCCCCCCNC(=O)c1nn(-c2ccc(Cl)cc2Cl)c(-c2ccc(Cl)cc2)c1C` yielded an inhibition on Cannabinoid receptor 1 [1] of 29%.

In the case of `COC(=O)CCCCCCCCCCNC(=O)c1nn(-c2ccc(Cl)cc2Cl)c(-c2ccc(Cl)cc2)c1C`, the inhibition on Cannabinoid receptor 1 [1] was 5%.

In the case of `Cc1c(C(=O)NN2CCCCC2)nn(-c2ccc(Cl)cc2Cl)c1-c1ccc(C#CCCOC(=O)CCCCCNC(=S)Nc2ccc3c(c2)C(=O)OC32c3ccc(O)cc3Oc3cc(O)ccc32)cc1`, on Cannabinoid receptor 1 [2], the Ki worked out at 260 nM.

Turning to `Cc1c(C(=O)NN2CCCCC2)nn(CCCCCC(=O)NCCCCCC(=O)O)c1-c1ccc(Cl)cc1`, the inhibition on Cannabinoid receptor 1 [1] was 13%.

`Cc1c(C(=O)NN2CCCCC2)nn(-c2ccc(Cl)cc2Cl)c1-c1ccc(C#CCCOC(=O)CCCCCCCCCCNC(=S)Nc2ccc3c(c2)C(=O)OC32c3ccc(O)cc3Oc3cc(O)ccc32)cc1` came in with a Ki on Cannabinoid receptor 1 [2] of 2110 nM.

At Cannabinoid receptor 1 [1], `Cc1c(C(=O)NN2CCCCC2)nn(-c2ccc(Cl)cc2Cl)c1-c1ccc(-c2ccc(C(=O)O)cc2)cc1` showed an inhibition of 66%.

In turn, `Cc1c(C(=O)NN2CCCCC2)nn(-c2ccc(Cl)cc2Cl)c1-c1ccc(C#CCCO)cc1` gave an inhibition on Cannabinoid receptor 1 [1] of 98%. For the same molecule, the affinity at Cannabinoid receptor 1 [2], expressed as Ki, was 180 nM.

Take `CCOC(=O)c1ccc(CNC(=O)c2nn(-c3ccc(Cl)cc3Cl)c(-c3ccc(Cl)cc3)c2C)cc1`: the Ki at Cannabinoid receptor 1 [2] stood at 8.2 nM.

Regarding `CNC(=O)CCCCCn1nc(C(=O)NN2CCCCC2)c(C)c1-c1ccc(Cl)cc1`, the inhibition on Cannabinoid receptor 1 [1] is 3%.

Regarding `CCCN(CCc1ccc(NC(=O)CCC(=O)NCCOCCOCC(=O)NCCCC[C@H](NC(C)=O)C(=O)NCCCC[C@H](NC(C)=O)C(=O)NCCCCCCNC(=O)c2nn(-c3ccc(Cl)cc3Cl)c(-c3ccc(Cl)cc3)c2C)cc1)C1CCc2c(O)cccc2C1` (some centres undefined), the affinity on D(2) dopamine receptor, expressed as Ki, was 2.4 nM. At Cannabinoid receptor 1 [1], this molecule came in with an inhibition of 44%.

At Cannabinoid receptor 1 [1], `Cc1c(C(=O)NCCCCCCNC(=O)CCCCCNC(=O)c2ccc(CNC(=O)CCCCCNC(=O)c3nn(-c4ccc(Cl)cc4Cl)c(-c4ccc(Cl)cc4)c3C)cc2)nn(-c2ccc(Cl)cc2Cl)c1-c1ccc(Cl)cc1` displayed an inhibition of 29%.

`COC(=O)c1ccc(-c2ccc(-c3c(C)c(C(=O)NN4CCCCC4)nn3-c3ccc(Cl)cc3Cl)cc2)cc1` yielded a Ki at Cannabinoid receptor 1 [2] of 131 nM.

For the molecule `CC(=O)N[C@@H](CCCCNC(=O)c1nn(-c2ccc(Cl)cc2Cl)c(-c2ccc(Cl)cc2)c1C)C(=O)NCCCC[C@H](NC(C)=O)C(=O)NCCCCCCNC(=O)c1nn(-c2ccc(Cl)cc2Cl)c(-c2ccc(Cl)cc2)c1C`, the inhibition on Cannabinoid receptor 1 [1] amounted to 11%.

`COC(=O)CCCCCCCCCCNC(=O)CCCCCn1nc(C(=O)NN2CCCCC2)c(C)c1-c1ccc(Cl)cc1` displayed an inhibition at Cannabinoid receptor 1 [1] of 13%.

On to `CC(=O)NCCCC[C@H](NC(C)=O)C(=O)NCCCC[C@H](NC(C)=O)C(=O)NCCCCCCNC(=O)c1nn(-c2ccc(Cl)cc2Cl)c(-c2ccc(Cl)cc2)c1C`, for which, on Cannabinoid receptor 1 [1], the inhibition was determined as 41%.

For `CC(=O)NCCOCCOCC(=O)NCCOCCOCC(=O)NCCCC[C@H](NC(C)=O)C(=O)NCCCC[C@H](NC(C)=O)C(=O)NCCCCCCNC(=O)c1nn(-c2ccc(Cl)cc2Cl)c(-c2ccc(Cl)cc2)c1C`, the inhibition on Cannabinoid receptor 1 [1] is 23%.

On to `CC(=O)OCCC#Cc1ccc(-c2c(C)c(C(=O)NN3CCCCC3)nn2-c2ccc(Cl)cc2Cl)cc1`, for which, at Cannabinoid receptor 1 [1], the inhibition stood at 100%. This molecule also had a Ki at Cannabinoid receptor 1 [2] of 11 nM.

Regarding `CCCN(CCc1ccc(NC(=O)CCC(=O)NCCCCCC(=O)NCc2ccc(C(=O)NCCCCCC(=O)NCCCCCCNC(=O)c3nn(-c4ccc(Cl)cc4Cl)c(-c4ccc(Cl)cc4)c3C)cc2)cc1)C1CCc2c(O)cccc2C1` (centres undefined), affinity at D(2) dopamine receptor was put at a Ki of 2.2 nM. The inhibition on Cannabinoid receptor 1 [1] came out at 33%.

Molecule `CNC(=O)c1ccc(-c2ccc(-c3c(C)c(C(=O)NN4CCCCC4)nn3-c3ccc(Cl)cc3Cl)cc2)cc1` had an inhibition on Cannabinoid receptor 1 [1] of 55%.

For the molecule `COC(=O)CCCCCNC(=O)CCCCCn1nc(C(=O)NN2CCCCC2)c(C)c1-c1ccc(Cl)cc1`, the inhibition at Cannabinoid receptor 1 [1] turned out to be 33%.

At Cannabinoid receptor 1 [1], `CC(=O)NCCCCCC(=O)NCc1ccc(C(=O)NCCCCCC(=O)NCCCCCCNC(=O)c2nn(-c3ccc(Cl)cc3Cl)c(-c3ccc(Cl)cc3)c2C)cc1` returned an inhibition of 23%.

For the molecule `CCCN(CCc1ccc(NC(=O)CCC(=O)NCCOCCOCC(=O)NCCOCCOCC(=O)NCCCC[C@H](NC(C)=O)C(=O)NCCCC[C@H](NC(C)=O)C(=O)NCCCCCCNC(=O)c2nn(-c3ccc(Cl)cc3Cl)c(-c3ccc(Cl)cc3)c2C)cc1)C1CCc2c(O)cccc2C1` (some centres undefined), the affinity on D(2) dopamine receptor, expressed as Ki, was 1.1 nM. For the same molecule, the inhibition on Cannabinoid receptor 1 [1] is 33%.

The molecule `COC(=O)CCCCCCCCCCNC(=O)c1ccc(-c2ccc(-c3c(C)c(C(=O)NN4CCCCC4)nn3-c3ccc(Cl)cc3Cl)cc2)cc1` registered an inhibition on Cannabinoid receptor 1 [1] of 0%.

On Cannabinoid receptor 1 [1], `CC(=O)NCCOCCOCC(=O)NCCCC[C@H](NC(C)=O)C(=O)NCCCC[C@H](NC(C)=O)C(=O)NCCCCCCNC(=O)c1nn(-c2ccc(Cl)cc2Cl)c(-c2ccc(Cl)cc2)c1C` showed an inhibition of 37%.

Consider `COC(=O)CCCCCNC(=O)c1nn(-c2ccc(Cl)cc2Cl)c(-c2ccc(Cl)cc2)c1C`, for which, at Cannabinoid receptor 1 [2], the affinity corresponds to a Ki of 13 nM.

On to `CCCN(CCc1ccc(NC(=O)CCC(=O)NCCCCCC(=O)NCc2ccc(C(=O)NCCCCCC(=O)NCCCCCC(=O)NCc3ccc(C(=O)NCCCCCC(=O)NCCCCCCNC(=O)c4nn(-c5ccc(Cl)cc5Cl)c(-c5ccc(Cl)cc5)c4C)cc3)cc2)cc1)C1CCc2c(O)cccc2C1` (centres undefined), for which the Ki at D(2) dopamine receptor was found to be 4.2 nM. Besides, at Cannabinoid receptor 1 [1], the inhibition amounted to 0%.

At Cannabinoid receptor 1 [1], `Cc1c(C(=O)NN2CCCCC2)nn(-c2ccc(Cl)cc2Cl)c1-c1ccc(C#CCCOCCCCCC(=O)OC(C)(C)C)cc1` had an inhibition of 97%. At Cannabinoid receptor 1 [2], this molecule had a Ki of 45 nM.

`Cc1c(C(=O)NCCCCCCCCCCC(=O)O)nn(-c2ccc(Cl)cc2Cl)c1-c1ccc(Cl)cc1` registered an inhibition at Cannabinoid receptor 1 [1] of 43%.

Regarding `Cc1c(C(=O)NN2CCCCC2)nn(CCCCCC(=O)OC(C)(C)C)c1-c1ccc(Cl)cc1`, the inhibition at Cannabinoid receptor 1 [1] is 37%.

`Cc1c(C(=O)NN2CCCCC2)nn(-c2ccc(Cl)cc2Cl)c1-c1ccc(C#CCCOC(=O)CCCCCCCCCCN)cc1` displayed an inhibition on Cannabinoid receptor 1 [1] of 87%. At Cannabinoid receptor 1 [2], the affinity, expressed as Ki, was 97 nM.

Molecule `Cc1c(C(=O)NN2CCCCC2)nn(-c2ccc(Cl)cc2Cl)c1-c1ccc(C#CCCOC(=O)CCCCCN)cc1` returned an inhibition on Cannabinoid receptor 1 [1] of 59%. Also, on Cannabinoid receptor 1 [2], the Ki was 1810 nM.

On to `Cc1c(C(=O)NN2CCCCC2)nn(CCCCCC(=O)O)c1-c1ccc(Cl)cc1`, for which the inhibition on Cannabinoid receptor 1 [1] was determined as 10%.

(Values after ChEMBL document CHEMBL4364348, “Divalent cannabinoid-1 receptor ligands: A linker attachment point survey of SR141716A for development of high-affinity CB1R molecular probes” (Bioorg Med Chem Lett, 2019).)
